Test results: ChEMBL document CHEMBL1144187, “Pharmacophore modeling and virtual screening for designing potential PLK1 inhibitors” (Bioorg Med Chem Lett, 2008)

target: Serine/threonine-protein kinase PLK1 (Homo sapiens, UniProt P53350)
Sequence (P53350 whole entry): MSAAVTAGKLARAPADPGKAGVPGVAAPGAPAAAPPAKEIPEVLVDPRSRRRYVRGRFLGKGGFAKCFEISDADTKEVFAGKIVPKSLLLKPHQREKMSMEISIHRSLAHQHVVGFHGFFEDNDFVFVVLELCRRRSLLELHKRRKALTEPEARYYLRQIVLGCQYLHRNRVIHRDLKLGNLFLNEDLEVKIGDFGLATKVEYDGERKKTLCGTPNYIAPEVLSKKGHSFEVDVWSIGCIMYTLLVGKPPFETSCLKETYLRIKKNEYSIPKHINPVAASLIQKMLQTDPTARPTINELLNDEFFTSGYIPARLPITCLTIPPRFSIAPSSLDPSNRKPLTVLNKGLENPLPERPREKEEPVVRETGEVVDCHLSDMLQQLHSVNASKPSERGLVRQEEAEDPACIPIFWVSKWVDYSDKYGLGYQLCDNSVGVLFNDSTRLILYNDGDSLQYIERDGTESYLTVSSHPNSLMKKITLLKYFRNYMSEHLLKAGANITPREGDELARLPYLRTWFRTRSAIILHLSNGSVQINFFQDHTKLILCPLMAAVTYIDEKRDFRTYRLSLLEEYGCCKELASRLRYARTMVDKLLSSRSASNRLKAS

In order of rising IC50:
1. C=CCOC(=O)/C(C#N)=C1\S[C@@H](CNc2ccc(NC(=O)NCCN3CCCC3)cc2)C(=O)N1CC  23 nM
2. C#CNC(=O)/C(C#N)=c1\s/c(=C/Nc2ccc(OCCN(C)C)cc2)c(=O)n1CC  71 nM
3. CCn1c(=O)/c(=C\Nc2ccc(OCCN(C)C)cc2)s/c1=C(/C#N)C(=O)NCC(F)F  74 nM
4. CCOC(=O)/C(C#N)=c1\s/c(=C/Nc2ccccc2F)c(=O)n1CC  160 nM
5. CC(=O)N(C)c1cccc(Nc2nc(NCCc3cccs3)ncc2-c2nn[nH]n2)c1  330 nM
6. FC(F)(F)c1ccc(Nc2nc(NCc3cccnc3)ncc2-c2nn[nH]n2)cc1  490 nM
7. CCOC(=O)/C(C#N)=c1\s/c(=C/Nc2ccc(NC(=O)COC)cc2)c(=O)n1CC  500 nM
8. CN1CCN(c2ccc(C(=O)Nc3[nH]nc4c3CN(C(=O)Cc3cccs3)C4)cc2)CC1  530 nM
9. CCCN(CC1CC1)c1nc(NC(C)c2ccccc2)ncc1C#N (configuration not stated)  550 nM
10. CC(Nc1ncc(C#N)c(N2CCc3ccccc3C2)n1)c1ccccc1 (configuration not stated)  750 nM
11. CC(C)(C)c1ccc(Nc2nc(NCc3cccnc3)ncc2-c2nn[nH]n2)cc1  960 nM
12. c1csc(CCNc2ncc(-c3nnn[nH]3)c(Nc3ccc4c(c3)OCCO4)n2)c1  1040 nM
13. CC(Nc1ncc(C#N)c(OCC2CCCCO2)n1)c1ccccc1 (configuration not stated)  1600 nM
14. CCCN(CC1CC1)c1nc(NCc2ccc3c(c2)OCO3)ncc1C#N  1600 nM
15. O=C1C(C2=C3C(=Nc4ccccc43)/C(=C\c3ccc(O)cc3)C2=O)=C2C(=Nc3ccccc32)/C1=C\c1ccc(O)cc1  2000 nM
16. N[C@H](COc1cncc(-c2cc3ccncc3s2)c1)Cc1c[nH]c2ccccc12  10000 nM
17. O=c1c(O)c(-c2ccc(O)c(O)c2)oc2cc(O)cc(O)c12 [QUERCETIN]  64000 nM
